According to ChEMBL document CHEMBL1141470, “4-(Heteroarylaminomethyl)-N-(2-aminophenyl)-benzamides and their analogs as a novel class of histone deacetylase inhibitors” (Bioorg Med Chem Lett, 2008):
Activity calls are given as the source filed them. The calls are words filed in the database; no cut-off is given here.

Tests used:
[1] = system: HCT-116; experiment: Cytotoxicity against human HCT116 cells by MTT assay; assay type: functional, cell-based
[2] = molecular target: T1, Histone deacetylase 1 (Homo sapiens, UniProt Q13547); experiment: Inhibition of recombinant HDAC1
T1 sequence (Q13547 whole entry): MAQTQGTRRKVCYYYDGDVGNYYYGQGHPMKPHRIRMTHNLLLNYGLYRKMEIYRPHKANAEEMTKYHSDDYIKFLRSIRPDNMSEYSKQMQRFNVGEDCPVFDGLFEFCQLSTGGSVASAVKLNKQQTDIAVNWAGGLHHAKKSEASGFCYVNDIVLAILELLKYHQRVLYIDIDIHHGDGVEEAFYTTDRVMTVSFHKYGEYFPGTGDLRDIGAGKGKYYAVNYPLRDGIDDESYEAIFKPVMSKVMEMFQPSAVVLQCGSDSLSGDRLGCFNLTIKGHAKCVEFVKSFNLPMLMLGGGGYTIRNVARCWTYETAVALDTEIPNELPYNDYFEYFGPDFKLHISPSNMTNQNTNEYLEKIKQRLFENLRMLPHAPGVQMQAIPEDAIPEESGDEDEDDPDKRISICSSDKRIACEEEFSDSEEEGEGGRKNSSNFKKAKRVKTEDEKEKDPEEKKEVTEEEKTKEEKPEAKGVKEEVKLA

[3] = molecular target: T1, Histone deacetylase 1; experiment: Inhibition of HDAC1 in human T24 cells assessed as induction of histone H4 acetylation after 16 hrs relative to MS-275; assay type: cell-based, T-24
[4] = system: HMEC; experiment: Cytotoxicity against human HMEC cells by MTT assay; assay type: cell-based
[5] = system: SW48; experiment: Antitumor activity in human SW48 cells xenografted mouse assessed as tumor growth inhibition at 20 mg/kg, ip qd after 14 days relative to control; assay type: functional; design: scale not given: the % may be the effect or the level left; conditions: route intraperitoneal
[6] = system: A549; experiment: Antitumor activity in human A549 cells xenografted mouse assessed as tumor growth inhibition at 20 mg/kg, ip qd after 14 days relative to control; assay type: functional; design: scale not given: the % may be the effect or the level left; conditions: route intraperitoneal
[7] = system: A549; experiment: Antitumor activity in human A549 cells xenografted mouse assessed as tumor growth inhibition at 90 mg/kg, po qd after 14 days relative to control; assay type: functional; design: scale not given: the % may be the effect or the level left
[8] = system: T-24; experiment: Induction of p21WAF1/CIP1 expression in human T24 cells; assay type: functional, cell-based
[9] = system: SW48; experiment: Antitumor activity in human SW48 cells xenografted mouse assessed as tumor growth inhibition at 90 mg/kg, po qd after 14 days relative to control; assay type: functional; design: scale not given: the % may be the effect or the level left
[10] = system: HCT-116; experiment: Cell cycle arrest in human HCT116 cells by accumulation at G2/M phase; assay type: functional, cell-based
[11] = system: COLO 205; experiment: Antitumor activity in human COLO205 cells xenografted mouse assessed as tumor growth inhibition at 90 mg/kg, po qd after 14 days relative to control; assay type: functional; design: scale not given: the % may be the effect or the level left
[12] = system: PANC-1; experiment: Antitumor activity in human PANC1 cells xenografted mouse assessed as tumor growth inhibition at 20 mg/kg, ip qd after 14 days relative to control; assay type: functional; design: scale not given: the % may be the effect or the level left; conditions: route intraperitoneal

Row | SMILES | IC50 [2] | EC50 [3] | IC50 [1] | IC50 [4] | further results
1 | Nc1ccccc1NC(=O)c1ccc(CSc2nnc(-c3ccccc3)o2)cc1 | 0.08 µM |  | 0.4 µM |  | 
2 | Cn1ccnc1SCc1ccc(C(=O)Nc2ccccc2N)cc1 | 1 µM |  | 5 µM |  | 
3 | CSc1nnc(NCc2ccc(C(=O)Nc3ccccc3N)cc2)[nH]1 | 0.2 µM |  | 0.6 µM |  | 
4 | Nc1ccccc1NC(=O)c1ccc(CNc2nc3ccccc3[nH]2)cc1 | 0.1 µM | 1 µM | 0.3 µM | 27 µM | 
5 | Nc1ccccc1NC(=O)c1ccc(CSc2nc3ccc(NCc4cccnc4)cc3s2)cc1 | 0.8 µM | 2 µM | 1 µM | > 50 µM | 
6 | Nc1ccccc1NC(=O)c1ccc(CSc2nc3ccccc3[nH]2)cc1 | 0.09 µM | < 1 µM | 0.3 µM | 14 µM | 
7 | Nc1ccccc1NC(=O)c1ccc(CNc2ncc(Br)s2)cc1 | 0.4 µM |  | 0.4 µM |  | 
8 | Nc1ccccc1NC(=O)c1ccc(CSc2nc3ccccc3s2)cc1 | 0.1 µM | 3 µM | 0.8 µM | 3 µM | 
9 | Nc1ccccc1NC(=O)c1ccc(CNc2nc3ccc(Br)cc3s2)cc1 | 0.05 µM | 2 µM | 0.4 µM | 6 µM | 
10 | Nc1ccccc1NC(=O)c1ccc(CSc2nc3ccc(NCc4ccccn4)cc3s2)cc1 | 0.07 µM | 3 µM | 1 µM | 8 µM | 
11 | COc1ccc2nc(NCc3ccc(C(=O)Nc4ccccc4N)cc3)sc2c1 | 0.03 µM | 1 µM | 0.2 µM | 5 µM | EC50 [8]: 0.8 µM; Activity [10]: Active
12 | COc1ccc2nc(SCc3ccc(C(=O)Nc4ccccc4N)cc3)[nH]c2c1 | 0.07 µM | 1 µM | 0.2 µM | 10 µM | EC50 [8]: 0.6 µM; Activity [10]: Active

Continued, in another order:

Row | IC50 [2] | EC50 [3] | SMILES | IC50 [1] | IC50 [4] | further results
13 | 0.5 µM |  | Nc1ccccc1NC(=O)c1ccc(CSc2ncc[nH]2)cc1 | 5 µM |  | 
14 | 0.07 µM |  | Nc1ccccc1NC(=O)c1ccc(CNc2cc(-c3ccccc3)[nH]n2)cc1 | 0.3 µM |  | 
15 | 0.1 µM | 1 µM | Nc1ccccc1NC(=O)c1ccc(CNc2nc3cc(Cl)ccc3o2)cc1 | 0.2 µM | 17 µM | 
16 | 0.07 µM | 5 µM | Nc1ccccc1NC(=O)c1ccc(CSc2nc3ccc(NCCN4CCOCC4)cc3s2)cc1 | 0.2 µM | 15 µM | 
17 | 0.06 µM | 1 µM | Nc1ccccc1NC(=O)c1ccc(CNc2nc3ccc(OCCN4CCOCC4)cc3s2)cc1 | 0.2 µM | 15 µM | Activity [5]: 74%; Activity [6]: 65%; Activity [7]: 65%; EC50 [8]: 1 µM; Activity [9]: 72%; Activity [10]: Active; Activity [11]: 62%; Activity [12]: 70%
18 | 0.3 µM |  | Nc1ccccc1NC(=O)c1ccc(CNc2ncc(-c3ccc(Cl)cc3)s2)cc1 | 0.3 µM |  | 
